Reference: the pKa sets of Baltruschat and Czodrowski (2020)

Question: With `CNS(=O)(=O)Cc1ccc2[nH]cc(CCN(C)C)c2c1` as the molecule, how does the pKa read?
Answer: 9.5

Question: For `CCOC(=O)C1(c2ccccc2)CCN(C)CC1`, which pKa is on record?
Answer: 8.7

Question: For `COc1ccc([C@@H]2Sc3ccccc3N(CCN(C)C)C(=O)[C@@H]2OC(C)=O)cc1`, which pKa is on record?
Answer: 8.06

Question: For `COc1ccc2c(c1)N(C[C@H](C)CN(C)C)c1ccccc1S2`, which pKa is on record?
Answer: 9.19

Question: Which pKa does the source give for `CN1CCCC(n2nc(Cc3ccc(Cl)cc3)c3ccccc3c2=O)CC1` (centres undefined) here?
Answer: 9.54

Question: Which pKa does the source give for `Cc1ccccc1OCC(O)CNCCOc1ccc(C(N)=O)cc1` (centres undefined) here?
Answer: 7.9

Question: With `CCN(C)C(=O)Oc1cccc([C@H](C)N(C)C)c1` as the molecule, how does the pKa read?
Answer: 8.99

Question: Which pKa does the source give for `CN(C)CCCN1c2ccccc2CCc2ccc(Cl)cc21` here?
Answer: 9.38

Question: With `CNCCC=C1c2ccccc2CCc2ccccc21` as the molecule, how does the pKa read?
Answer: 10.1

Question: With `CN1CCN2c3ncccc3Cc3ccccc3C2C1` (centres undefined) as the molecule, how does the pKa read?
Answer: 7.3

Question: For `CCc1nn(CCCN2CCN(c3cccc(Cl)c3)CC2)c(=O)n1CCOc1ccccc1`, which pKa is on record?
Answer: 6.5

Question: Which pKa does the source give for `CC(CCc1ccccc1)NCC(O)c1ccc(O)c(C(N)=O)c1` (centres undefined) here?
Answer: 7.4

Question: With `CNCC[C@@H](Oc1ccccc1C)c1ccccc1` as the molecule, how does the pKa read?
Answer: 10.1

Question: Which pKa does the source give for `OC(CNCC(O)C1CCc2cc(F)ccc2O1)C1CCc2cc(F)ccc2O1` (centres undefined) here?
Answer: 8.22

Question: With `CC(C)(C)NCC(O)c1cc(O)cc(O)c1` (centres undefined) as the molecule, how does the pKa read?
Answer: 8.7

Question: With `CC(C)(C)NCC(O)COc1nsnc1N1CCOCC1` (centres undefined) as the molecule, how does the pKa read?
Answer: 8.8

Question: With `O=C(NCC1CCCCN1)c1cc(OCC(F)(F)F)ccc1OCC(F)(F)F` (centres undefined) as the molecule, how does the pKa read?
Answer: 9.3

Question: For `CC(CN1c2ccccc2Sc2ccccc21)N(C)C` (centres undefined), which pKa is on record?
Answer: 9.1

Question: With `O=c1n(CCCN2CCN(c3cccc(Cl)c3)CC2)nc2ccccn12` as the molecule, how does the pKa read?
Answer: 6.79

Question: With `COc1ccc2c3c1O[C@H]1[C@@H](O)C=C[C@H]4[C@@H](C2)N(C)CC[C@@]341` as the molecule, how does the pKa read?
Answer: 8.2

Question: For `CC(C)NCC(O)COc1ccc(CCOCC2CC2)cc1` (centres undefined), which pKa is on record?
Answer: 9.21

Question: With `CN(C)CCC=C1c2ccccc2CCc2ccccc21` as the molecule, how does the pKa read?
Answer: 9.4

Question: For `CC(C)(C)NCC(O)COc1cccc2c1C[C@H](O)[C@H](O)C2` (some centres undefined), which pKa is on record?
Answer: 9.67

Question: Which pKa does the source give for `CNCCCC12CCC(c3ccccc31)c1ccccc12` here?
Answer: 10.5

Question: For `CC(CN(C)C)CN1c2ccccc2CCc2ccccc21` (centres undefined), which pKa is on record?
Answer: 9.24

Question: With `CC(C)NCC(O)COc1ccc(COCCOC(C)C)cc1` (centres undefined) as the molecule, how does the pKa read?
Answer: 9.57

Question: With `CC(C)NCC(O)c1ccc(NS(C)(=O)=O)cc1` (centres undefined) as the molecule, how does the pKa read?
Answer: 9.76

Question: With `CN(C)CCCN1c2ccccc2Sc2ccccc21` as the molecule, how does the pKa read?
Answer: 9.28

Question: For `Cc1ccc(O)c([C@@H](CCN(C(C)C)C(C)C)c2ccccc2)c1`, which pKa is on record?
Answer: 9.8
